Test results: doi:10.1101/212431v1, “Genetic variation across the human olfactory receptor repertoire alters odor perception” (biorxiv, 2017)

Molecular target: T1, OR11A1 (reference haplotype MA) (Homo sapiens, UniProt Q9GZK7)
T1 construct: Hana3A cells co-transfected with RTP1S and M3-R
T1 sequence (Q9GZK7 1-315): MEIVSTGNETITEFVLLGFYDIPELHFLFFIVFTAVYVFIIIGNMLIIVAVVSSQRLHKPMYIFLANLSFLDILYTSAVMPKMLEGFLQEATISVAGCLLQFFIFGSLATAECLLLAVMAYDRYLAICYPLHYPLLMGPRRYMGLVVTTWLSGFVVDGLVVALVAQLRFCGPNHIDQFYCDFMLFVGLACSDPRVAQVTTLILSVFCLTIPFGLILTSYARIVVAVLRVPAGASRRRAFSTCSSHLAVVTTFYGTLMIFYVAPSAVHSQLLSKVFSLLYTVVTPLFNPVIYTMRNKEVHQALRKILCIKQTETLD
Assay: CRE-luciferase reporter assay in Hana3A cells
Format: cell-based
Conditions: read-out: log(EC50 of reference MA) (converted)

EC50: 158 nM
SMILES: CCC1(O)C2(C)CCC(C2)C1(C)C (stereo not shown) [2-ethylfenchol]
